# Patent US20170326125A1, “MULTISUBSTITUTED AROMATIC COMPOUNDS AS INHIBITORS OF THROMBIN” (VERSEON CORPORATION, priority 2016, published 2017)
# pIC50: −log10 of the molar value.
# Molecular target: T1, Human thrombin (Homo sapiens, UniProt P00734)
# T1 construct: purchased Haematologic Technologies Inc
# Assay: Inhibition of the protease activity of thrombin (chromogenic substrate S-2238)
# Type: biochemical
# Details: Table C; 3 nM thrombin, 125 μM S-2238, 10 min pre-incubation, RT
row,SMILES,pIC50
1,"CC(=O)n1nc(-c2cccnc2)nc1NCc1ccc(F)cc1 [Cmpd 317, 1-(5-[(4-fluorophenyl)methyl]amino-3-(pyridin-3-yl)-1H-1,2,4-triazol-1-yl)ethan-1-one]",> 7.00
2,"COCC(=O)n1nc(-c2cccnc2)nc1NCc1ccc(F)cc1 [Cmpd 311, 1-(5-[(4-fluorophenyl)methyl]amino-3-(pyridin-3-yl)-1H-1,2,4-triazol-1-yl)-2-methoxyethan-1-one]",< 6.00
3,"COc1ccc(CNc2nc(-c3cccnc3)nn2C(=O)c2cccs2)cc1 [Cmpd 405, N-[(4-methoxyphenyl)methyl]-3-(pyridin-3-yl)-1-[(thiophen-2-yl)carbonyl]-1H-1,2,4-triazol-5-amine]",< 6.00
4,"CC(C)C(=O)n1nc(-c2cccnc2)nc1NCc1ccc(F)cc1 [Cmpd 312, 1-(5-[(4-fluorophenyl)methyl]amino-3-(pyridin-3-yl)-1H-1,2,4-triazol-1-yl)-2-methylpropan-1-one]",> 7.00
5,"Cc1ccc(C(=O)n2nc(-c3cccnc3)nc2NCc2ccc(F)cc2)cc1 [Cmpd 401, N-[(4-fluorophenyl)methyl]-1-[(4-methylphenyl)carbonyl]-3-(pyridin-3-yl)-1H-1,2,4-triazol-5-amine]",> 7.00
6,"O=C(Nc1n[nH]c(-c2ccco2)n1)c1ccccc1 [Cmpd 407, N-[5-(furan-2-yl)-1H-1,2,4-triazol-3-yl]benzamide]",< 6.00
7,"O=C(CCc1ccccc1)n1nc(-c2cccnc2)nc1NCc1ccc(F)cc1 [Cmpd 315, 1-(5-[(4-fluorophenyl)methyl]amino-3-(pyridin-3-yl)-1H-1,2,4-triazol-1-yl)-3-phenylpropan-1-one]",> 7.00
8,"O=C(c1cccnc1)n1nc(-c2cccnc2)nc1NCc1ccco1 [Cmpd 396, N-(furan-2-ylmethyl)-3-(pyridin-3-yl)-1-[(pyridin-3-yl)carbonyl]-1H-1,2,4-triazol-5-amine]",< 6.00

# Same assay, conditions: inhibition of the protease activity of thrombin
row,SMILES,pIC50
1,"Cc1ccccc1C(=O)n1nc(-c2ccccn2)cc1NCc1ccccc1 [Cmpd 260, N-benzyl-1-[(2-methylphenyl)carbonyl]-3-(pyridin-2-yl)-1H-pyrazol-5-amine]",< 6.00
2,"c1ccc(CNc2nc(-c3ccncc3)n[nH]2)cc1 [Cmpd 290, N-benzyl-3-(pyridin-4-yl)-1H-1,2,4-triazol-5-amine]",< 6.00
3,"Cc1ccc(C(=O)n2nc(-c3ccccn3)nc2NCc2ccccc2)c(C)c1 [Cmpd 237, N-benzyl-1-[(2,4-dimethylphenyl)carbonyl]-3-(pyridin-2-yl)-1H-1,2,4-triazol-5-amine]",6.00 to 7.00
4,"CCc1ccccc1C(=O)n1nc(-c2ccccn2)nc1NCc1ccccc1 [Cmpd 246, N-benzyl-1-[(2-ethylphenyl)carbonyl]-3-(pyridin-2-yl)-1H-1,2,4-triazol-5-amine]",6.00 to 7.00
5,"O=C(N1CCCCC1)n1nc(-c2cccnc2)nc1NCc1ccc(F)cc1 [Cmpd 215, N-[(4-fluorophenyl)methyl]-1-[(piperidin-1-yl)carbonyl]-3-(pyridin-3-yl)-1H-1,2,4-triazol-5-amine]",< 6.00
6,"O=C(c1cccc2c1OC(F)(F)O2)n1nc(-c2ccccn2)nc1NCc1ccccc1 [Cmpd 231, N-benzyl-1-[(2,2-difluoro-2H-1,3-benzodioxol-4-yl)carbonyl]-3-(pyridin-2-yl)-1H-1,2,4-triazol-5-amine]",< 6.00
7,"CCCn1nc(-c2ccccn2)nc1NCc1ccc(F)cc1 [Cmpd 216, N-[(4-fluorophenyl)methyl]-1-propyl-3-(pyridin-2-yl)-1H-1,2,4-triazol-5-amine]",< 6.00
8,"CC(C)c1ccccc1C(=O)n1nc(-c2ccccn2)cc1NCc1ccccc1 [Cmpd 276, N-benzyl-1-[2-(propan-2-yl)phenyl]carbonyl-3-(pyridin-2-yl)-1H-pyrazol-5-amine]",< 6.00
9,"COc1ccc(C(=O)n2nc(-c3ccccn3)nc2NCc2ccccc2)c(F)c1 [Cmpd 248, N-benzyl-1-[(2-fluoro-4-methoxyphenyl)carbonyl]-3-(pyridin-2-yl)-1H-1,2,4-triazol-5-amine]",> 7.00
10,"CC(C)c1ccccc1C(=O)n1nc(-c2ccccn2)nc1NCc1ccccc1 [Cmpd 275, N-benzyl-1-[2-(propan-2-yl)phenyl]carbonyl-3-(pyridin-2-yl)-1H-1,2,4-triazol-5-amine]",< 6.00

# Same assay, conditions: inhibition of the protease activity of thrombin; class symbols a/b/c
row,SMILES,pIC50
1,"COc1ccccc1C(=O)n1nc(-c2ccccn2)nc1NCc1csc2ccccc12 [Cmpd 199, N-(1-benzothiophen-3-ylmethyl)-1-[(2-methoxyphenyl)carbonyl]-3-(pyridin-2-yl)-1H-1,2,4-triazol-5-amine]",< 6.00
2,"COc1ccc(CNc2nc(-c3ccncc3)nn2C(=O)C(C)C)cc1 [Cmpd 95, 1-(5-[(4-methoxyphenyl)methyl]amino-3-(pyridin-4-yl)-1H-1,2,4-triazol-1-yl)-2-methylpropan-1-one]",> 7.00
3,"COC(=O)c1n[nH]c(NC(=O)c2ccc(C)cc2)n1 [Cmpd 196, methyl 5-[(4-methylbenzene)amido]-1H-1,2,4-triazole-3-carboxylate]",< 6.00
4,"O=C(Nc1nc(C(=O)N2CCOCC2)n[nH]1)c1ccccc1Cl [Cmpd 170, 2-chloro-N-3-[(morpholin-4-yl)carbonyl]-1H-1,2,4-triazol-5-ylbenzamide]",< 6.00
5,O=C(c1cc(-c2ccccn2)nn1CCc1ccc(F)cc1)N1CCCCC1 [Cmpd 54],< 6.00
6,"CN(C)C(=O)c1cc(-c2ccccn2)n(CCc2ccc(F)cc2)n1 [Cmpd 129, 1-[2-(4-fluorophenyl)ethyl]-N,N-dimethyl-5-(pyridin-2-yl)-1H-pyrazole-3-carboxamide]",< 6.00
7,"CC(C)CC(=O)n1nc(-c2ccncc2)nc1NCc1ccc(F)cc1 [Cmpd 78, 1-(5-[(4-fluorophenyl)methyl]amino-3-(pyridin-4-yl)-1H-1,2,4-triazol-1-yl)-3-methylbutan-1-one]",> 7.00
8,"COc1ccc(C(=O)n2nc(-c3ccccn3)nc2NCc2ccccc2)c(N)c1 [Cmpd 104, 1-[(2-amino-4-methoxyphenyl)carbonyl]-N-benzyl-3-(pyridin-2-yl)-1H-1,2,4-triazol-5-amine]",> 7.00
9,"Cc1ccc(C(=O)n2nc(-c3ccccn3)cc2NCc2ccccc2)c(N)c1 [Cmpd 108, 1-[(2-amino-4-methylphenyl)carbonyl]-N-benzyl-3-(pyridin-2-yl)-1H-pyrazol-5-amine]",6.00 to 7.00
10,"CC(C)CC(=O)n1nc(-c2ccccn2)nc1NCc1ccc(F)cc1 [Cmpd 67, 1-(5-[(4-fluorophenyl)methyl]amino-3-(pyridin-2-yl)-1H-1,2,4-triazol-1-yl)-3-methylbutan-1-one]",> 7.00
11,O=C(O)c1cc(-c2ccccn2)n(CCc2ccc(F)cc2)n1 [Cmpd 58],< 6.00
12,"CCC(=O)n1nc(-c2ccco2)nc1NCc1ccc(F)cc1 [Cmpd 63, 1-(5-[(4-fluorophenyl)methyl]amino-3-(furan-2-yl)-1H-1,2,4-triazol-1-yl)propan-1-one]",> 7.00
13,"CSc1nc(-c2cccs2)nn1C(=O)c1ccccc1Cl [Cmpd 110, 1-[(2-chlorophenyl)carbonyl]-5-(methylsulfanyl)-3-(thiophen-2-yl)-1H-1,2,4-triazole]",> 7.00
14,"O=C(CCc1ccccc1)n1nc(-c2ccncc2)nc1NCc1ccccc1 [Cmpd 149, 1-[5-(benzylamino)-3-(pyridin-4-yl)-1H-1,2,4-triazol-1-yl]-3-phenylpropan-1-one]",6.00 to 7.00
